Reference: patent publication US20180057888A1, “KUB5/HERA AS A DETERMINANT OF SENSITIVITY TO DNA DAMAGE” (priority 2015, published 2018)
Like-named read-outs stand apart in the source and are kept apart here.

Assays:
[1] = system: 231 cells; experiment: Western blot analysis of pS1497-BRCA1 and CDK1 in 231 cells; type: cell-based; conditions: 24 hr; for CDK1 protein level: Rucaparib 5 μM and/or RO3066 0.5 and 1 μM
Protocol: FIGS. 9A-H. Loss of K-H compromises CDK1 expression/activity and reduces HR-mediated DSB repair. (FIG. 9[…]1 cells transiently transfected with indicated concentrations of siK-H for 48 hr. Total cellular proteins from each treatments were subjected to Western blot analysis using indicated antibodies. (FIG. 9B) Western blot analysis of CDK1 protein levels in 231 […] treated with siK-H (15 nM) and harvested at various times (24, 48, 72 hr). (FIG. 9C) Western blot analysis of CDK1 protein levels in 231 cells treated with siRNA to nonspecific gene control (siSCR) or specific genes as indicated (15 nM). Specific siRNA oligonucleotide sequences used in this study are listed in Table S3. […] (FIG. 9E) 231 cells treated with ionizing radiation (IR, 2 Gy) and harvested after 1 hr. […] Bottom, Endogenous phospho-[…] BRCA1 is higher in shSCR compared to shK-H. After IR treatment, […] BRCA1 phosphorylation is impaired in 231 shK-H but not in shSCR. (FIG. 9F) 231 cells treated with PARP1i Rucaparib (5 μM, 24 hr), CDK1 inhibitor RO3066 (0.5 and 1 μM, 24 hr) or combination [Rucaparib+RO3066]. Cells were harvested after 24 hr treatment. […] BRCA1 was activated ([…]-BRCA1) after Rucaparib treatment alone (lane 2) but not in combination with CDK1 inhibitor, RO3066 (lanes 5 and 6). […] (FIG. 90) Comparison of 231 […]) treated with Rucaparib (5 μM, 24 hr), CDK1 inhibitor RO3066 (1 μM, 24 hr) or combination [Rucaparib+RO3066]. Cells were harvested after 24 hr treatment. […] Endogenous […]-BRCA1 was higher in vehicle-treated shSCR (lane 1) compared to shK-H (lane 6). […] (FIG. 9H) Homologous recombination assay in MCF-7 cells using DR-GFP reporter system. Columns represent mean percentage of GFP-positive cells normalized to control (siSCR); error bars represent ±s.e.m. from duplicate experiments, *p<0.05, **p<0.01. See Table S3 for siRNA sequences. siK-H used was to 3'-UTR. Western Blot Analysis. Whole-cell lysates and nuclear extracts were prepared as previously described (Morales et al., 2014). See Supplementary Table S2 for a list of specific antibodies and dilutions used. Protein concentrations were determined by BCA Assay following manufacturer's instructions (Thermo Scientific). Normalized protein samples were separated on denaturing gradient gels (4-20% from BioRad) and were transferred to PVDF membranes for immunoblotting. After transfer, the membranes were first blocked with 1× Sigma Blocking Buffer for an hour at room temperature. The membranes were then incubated with the indicated primary antibodies diluted in 1× Sigma Blocking Buffer at 4° C. overnight. After this step, the membranes were washed with PBST (3×, 10 minutes each). HRP-conjugated secondary antibodies were diluted in 1× Sigma Blocking Buffer and incubated with the membranes at room temperature for 1 hr. […]

[2] = system: shK-H 231 cells; experiment: Immunofluorescence of γ-H2AX and 53BP1 foci (DSB markers), shK-H cells; type: cell-based; conditions: shK-H-depleted 231 cells, Rucaparib 5 μM, 24 hr
Protocol: (§1) MDA-MB-231 shSCR or shK-H cells were plated in a six-well plate (˜200,000 each well containing a glass slide) overnight. The next day, cells were treated with DMSO (0.01%) or Rucaparib/AG014699 (5 μM) for 24 hr. After treatment, the media was gently replaced with drug-free media and harvested at various times (0, 1, 6, 24 hr). The slides were gently washed with phosphate-buffered solution (pH=7.4), and fixed with ice cold methanol:acetone solution (3:1) for 10 min at −20° C. The cells were then washed and rehydrated with PBS at room temperature (3×, 5 min intervals). Next, the cells were incubated in blocking solution (5% normal goat serum in PBS) for 60 min at RT. After blocking, the cells were then incubated in primary antibody (diluted in 5% normal goat serum in PBS) overnight at 4° C. The next day, the cells were washed three times with wash buffer (1% BSA in PBS; 5 min. interval between washes). […]
(§2) To elucidate the mechanism by which K-H depletion sensitizes cells to PARP inhibition, the inventors treated shSCR vs shK-H 231 cells with vehicle (0.01% DMSO) or Rucaparib (5 μM) for 24 hr and quantified DSB formation at various times post-treatment using γ-H2AX and/or 53BP1 as surrogate DSB markers (Lobrich et al., 2010; Anderson et al., 2001 and Bekker-Jensen et al., 2005) (representative images, FIG. 2A).

[3] = system: MDA-MB-231 shSCR cells; experiment: Colony formation assay (clonogenic survival), MDA-MB-231 shSCR; type: cell-based
Protocol: (§3) Colony Formation Assay (CFA).
(§4) Cells were seeded out in appropriate dilutions and treated with the vehicle (0.01% DMSO) or PARP inhibitors at various concentrations for 24 hr. After treatment, cells were then cultured in drug-free medium for several days (at least six rounds of replication), depending on the proliferation rate of each cell line. Colonies were fixed with formaldehyde (4%) and stained with crystal violet. Colonies containing more than 50 normal-appearing cells were counted using a microscope. Each drug concentration was assessed in triplicate, and the experiments were repeated three times.

[4] = system: HCC1569 breast cancer cell line; experiment: cells; type: cell-based; conditions: Homo sapiens, HCC1569, read-out: AG014699 Mean LC50 (SEM)
Protocol: as §3, §4

[5] = system: MCF-7 breast cancer cell line; experiment: cells; type: cell-based; conditions: Homo sapiens, MCF7, read-out: AG014699 Mean LC50 (SEM)
Protocol: as §3, §4

[6] = system: HTB24 breast cancer cell line; experiment: cells; type: cell-based; conditions: read-out: AG014699 Mean LC50 (SEM)
Protocol: as §3, §4

[7] = system: HCC202 breast cancer cell line; experiment: cells; type: cell-based; conditions: HCC202, read-out: AG014699 Mean LC50 (SEM)
Protocol: as §3, §4

[8] = system: HTB122 breast cancer cell line; experiment: cells; type: cell-based; conditions: read-out: AG014699 Mean LC50 (SEM)
Protocol: as §3, §4

[9] = system: MDA-MB-231 shPARP1 cells; experiment: Colony formation assay (clonogenic survival), MDA-MB-231 shPARP1; type: cell-based
Protocol: as §3, §4

[10] = system: shSCR 231 cells; experiment: Immunofluorescence of γ-H2AX and 53BP1 foci (DSB markers), shSCR cells; type: cell-based; conditions: shSCR 231 cells with wild-type K-H; Rucaparib 5 μM, 24 hr
Protocol: as §1, §2

[11] = system: MDA-MB-231 shK-H cells; experiment: Colony formation assay (clonogenic survival), MDA-MB-231 shK-H; type: cell-based; conditions: for CC50: Homo sapiens; for sensitivity of shK-H cells in colony forming assays: shK-H cells compared to parental or shSCR 231 cells, 24 hr treatment
Protocol: as §3, §4

[12] = system: HCC1937 cells; experiment: Sulforhodamine B viability assay in HCC1937 cells; type: cell-based; conditions: Rucaparib 30 μM, 24 hr
Excerpt: FIGS. 8A-H. Pharmacological and genetic ablation of PARP1 activity is synthetic lethal with aberrant K-H reduction in BRCA-proficient breast cancers. (FIG. 8A) Western blot analysis of the parental BRCA-proficient 231 TNBC compared with 231 cells engineered to generate stable short hairpin RNA targeting non-specific gene control (shSCR), Kub5-Hera (shK-H) or PARP1 (shPARP1). (FIG. 8B) Chemical structures of PARP inhibitors used in this study. Left, AG014361; Right, AG014699 or Rucaparib. (C) Colony formation of specified cell lines treated with varying concentrations (0, 1, 2.5, 5, 10, 25 μM) of PARP inhibitor, AG014361, for 24 hr. Survival is expressed as mean percentage of colonies formed relative to vehicle-treated (0.01% DMSO) cells; error bars represent ±s.e.m. from three replicates. (FIG. 8D) Total cellular proteins from indicated 231 cells treated with vehicle (0.01% DMSO), AG014699/Rucaparib (5 μM), or staurosporine (STS, 2 μM) were subjected to Western blot analysis with indicated antibodies. (FIG. 8E) Western blot analysis of HCC1937 cell lines stably transfected with empty vector (lane 1), BRCA1 cDNA (lane 2), BRCA1 cDNA+ transient siSCR (lane 3), or BRCA1 cDNA+ transient siK-H (lane 4). […] Colorimetric intensity values were obtained using a plate reader, and normalized to control (0.01% DMSO). […]

[13] = system: shK-H 231 cells; experiment: TUNEL assay of apoptotic cell death; type: cell-based; conditions: Rucaparib 5 and 10 μM, 24 hr
Protocol: TUNEL Assay. To measure apoptotic cell death, log phase 231 shSCR or shK-H cells were treated with the vehicle (0.01% DMSO) or Rucaparib (5 and 10 μM) for 24 hr, and incubated in drug-free media for additional 72 hr in the cell incubator. The cells were then harvested and fixed in 70% ethanol overnight at −20° C. Equal amount of cells from each treatment were then subjected to terminal deoxynucleotidyltransferase dUTP nick end labeling (TUNEL) following the standard protocols from APO-Direct TUNEL Assay kit (BD Biosciences), which include positive and negative controls. Flow cytometry experiments were immediately performed using the BD LSRFortessa II cell analyzer, and data were analyzed using the BD FACSDiva software (www.bdbiosciences.com). All experiments were performed in triplicate.

[14] = target: PARP1 (Homo sapiens, UniProt P09874); experiment: PARP activity assay (PAR formation, immunoblot of total protein lysates); type: biochemical; conditions: lysates of parental, shK-H, shPARP1, shSCR 231 cells
Protocol: PARP Activity Assay. PARP activity was measured using immunoblot assay, which measured the amount of poly(ADP)-ribonucleotide (PAR) products synthesized using total protein lysates for PARP enzymatic activity in vitro. Briefly, the reaction containing total protein lysate (90 μg), and excess blunt-ended double-strand DNA oligonucleotide (26-mer) with internal synthetic abasic site (50 uM) in a reaction buffer containing Tris-HCl (10 mM, pH=7.4) and Mg^2+ (12 mM) was initiated by addition of excess β-NAD^+ (10 mM). The reaction was then stopped at various time-points by the addition of ice-cold concentrated AG014699/Rucaparib (250 μM), a known PARP1 inhibitor. Aliquots from each time points of the reaction were blotted onto a nitrocellulose membrane (BioRad dot blotter), and processed using standard Western blot assays. The density of each dots were quantified by ImageJ and plotted by GraphPad PRISM after normalization to controls (no NAD^+ addition).

[15] = system: MDA-MB-231 breast cancer cell line; experiment: Colony formation assay (clonogenic survival), parental MDA-MB-231; type: cell-based
Protocol: as §3, §4

[16] = Homo sapiens, MDA-MB-231, read-out: AG014699 Mean LC50 (SEM)
[17] = Homo sapiens, MDA-MB-231, read-out: LC50 values

Chain of PARP1 (P09874 whole entry): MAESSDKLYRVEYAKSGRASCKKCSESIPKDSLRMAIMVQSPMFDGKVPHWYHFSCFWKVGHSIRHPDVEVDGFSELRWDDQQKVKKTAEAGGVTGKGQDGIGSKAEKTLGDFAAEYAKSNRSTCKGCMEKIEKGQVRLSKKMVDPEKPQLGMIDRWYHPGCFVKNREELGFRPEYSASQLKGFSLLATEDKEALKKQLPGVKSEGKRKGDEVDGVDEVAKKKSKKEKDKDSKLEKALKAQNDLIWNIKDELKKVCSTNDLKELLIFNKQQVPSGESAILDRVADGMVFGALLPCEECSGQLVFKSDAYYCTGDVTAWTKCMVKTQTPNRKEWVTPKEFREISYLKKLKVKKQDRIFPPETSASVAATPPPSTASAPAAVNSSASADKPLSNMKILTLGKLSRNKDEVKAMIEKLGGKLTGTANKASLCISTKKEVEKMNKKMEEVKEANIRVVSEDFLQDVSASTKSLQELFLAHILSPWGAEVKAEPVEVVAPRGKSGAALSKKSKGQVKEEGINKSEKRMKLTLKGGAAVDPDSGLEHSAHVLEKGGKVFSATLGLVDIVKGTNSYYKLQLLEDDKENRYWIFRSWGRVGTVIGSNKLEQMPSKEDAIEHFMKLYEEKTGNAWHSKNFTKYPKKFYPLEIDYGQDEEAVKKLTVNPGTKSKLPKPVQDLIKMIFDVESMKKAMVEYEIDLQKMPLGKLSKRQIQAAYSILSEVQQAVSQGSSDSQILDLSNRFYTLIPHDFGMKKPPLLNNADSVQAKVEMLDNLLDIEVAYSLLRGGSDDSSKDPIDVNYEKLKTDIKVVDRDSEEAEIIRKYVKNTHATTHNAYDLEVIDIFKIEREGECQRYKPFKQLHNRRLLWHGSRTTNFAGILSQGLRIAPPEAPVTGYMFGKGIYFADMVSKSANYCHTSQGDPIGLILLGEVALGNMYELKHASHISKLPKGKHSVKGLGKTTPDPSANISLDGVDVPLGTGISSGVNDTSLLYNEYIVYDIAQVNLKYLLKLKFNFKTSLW

## O=C1NC(=NCc2cccs2)S/C1=C\c1ccc2ncccc2c1 [RO3066]
[1]; 231 cells
  CDK1 protein level: no further reduction of CDK1
[1]; 231 shSCR cells, Rucaparib 5 μM + RO3066 1 μM
  pS1497-BRCA1 activation in combination with Rucaparib: inhibited

## CNCc1ccc(-c2[nH]c3cc(F)cc4c3c2CCNC4=O)cc1 [AG014699, Rucaparib]
[2]
  levels of co-localized γ-H2AX and 53BP1 foci (persistent DSBs): dramatically increased
[2]; over time post-treatment
  DSB levels (53BP1 foci formation): Dramatic increase in DSB levels
[3]; [16]
  CC50: 18 µM
[3]; [17]
  CC50: ~20 µM
[4]
  CC50: 18 µM
[5]
  CC50: 11 µM
[6]
  CC50: 1.5 µM
[7]
  CC50: 6.7 µM
[8]
  CC50: 3.9 µM
[9]; [16]
  CC50: 17 µM
[9]; [17]
  CC50: ~20 µM
[10]
  levels of DSBs after exposure: significantly lower levels of DSBs
[11]; MDA-MB-231, read-out: AG014699 Mean LC50 (SEM)
  CC50: 0.7 µM
[11]; MDA-MB-231, read-out: lethality (LC50) in shK-H 231 cells
  CC50: 0.66 µM
[11]; shK-H 231 cells, Rucaparib vs AG014361
  fold greater lethality than similar AG014361 exposures: ~6 fold
[12]; BRCA1-corrected HCC1937 + siK-H
  lethality after siK-H depletion of BRCA1-corrected cells: induced lethality
[12]; BRCA-deficient HCC1937 + BRCA1 cDNA
  lethality after reconstitution with BRCA1 cDNA: abolished
[13]
  apoptosis (% TUNEL+): dose-dependent increase in apoptosis
[14]
  Relative PARP enzymatic activity [PAR formation/Time (sec)]: inhibited
[1]; 231 cells
  CDK1 protein level: no further reduction of CDK1
[1]; 231 cells, Rucaparib alone 5 μM
  BRCA1 activation (pS1497-BRCA1): activated
[15]; [16]
  CC50: 20 µM
[15]; [17]
  CC50: ~20 µM

## Cn1ncnc1[C@H]1c2n[nH]c(=O)c3cc(F)cc(c23)N[C@@H]1c1ccc(F)cc1 [Talazoparib]
[11]
  sensitivity of shK-H cells in colony forming assays: more sensitive

## CN(C)Cc1ccc(-c2nc3cccc4c3n2CCNC4=O)cc1 [AG014361]
[3]; shSCR 231 cells, similar treatment conditions, read-out: LC50 values
  CC50: ~20 µM
[9]; shPARP1 231 cells, dose-response curve coinciding with parental or shSCR cells
  additional lethality in PARP1-deficient cells: did not induce additional lethality
[9]; shPARP1 231 cells, similar treatment conditions, read-out: LC50 values
  CC50: ~20 µM
[11]
  sensitivity of shK-H cells in colony forming assays: more sensitive
[15]; parental 231 cells, similar treatment conditions, read-out: LC50 values
  CC50: ~20 µM
